# Patent publication US12583884B2, “3beta-(benzyloxy)-17alpha-methyl-pregn-5-en-20-one for use in the treatment of cognitive disorders” (AELIS FARMA, priority 2018, dated 2026)
# Tests used:
# in vivo = conditions: both, Sprague-Dawley, rat, 20 mg/kg
# Experimental: Blood samples for plasma drug analysis were collected after the last treatment, at 5 and 24 hours post-dose. Quantification was done by LC/MS-MS chromatography.
# [1] = system: 19 to 22-month-old C57B1/6J mice; experiment: Declarative/relational memory (radial maze flexibility test), aged mice; format: in vivo, mouse; conditions: 0.6 μg/ml in drinking water, chance level 50%
# Experimental: The relational memory task was performed using 8-arm radial mazes described in Example 3b. Food restriction and habituation procedures were performed as described in Example 3b. Acquisition began 24 h after the last habituation session. The acquisition stage consisted in learning the positions of the food pellets within the maze. […] One arm of each pair contained reward at its end, the other arm of each pair was not baited.
# Acquisition is based on a go-no go procedure. The arms are presented one by one. Subjects are expected to visit the rewarded arms faster than the non-rewarded arms. At the beginning of each daily session, the mouse was placed at the center of the maze with no access to the arms. The doors of the first arm then opened. […] The door of an arm then open immediately after (0-sec inter-trial interval). […] Each daily session contained 40 successive arm presentations (i.e. trials) organized into two distinct temporal sequences. In the first sequence (20 trials), four arms of the maze were presented alternatively (two baited and two non-baited). Consecutively, the second sequence started (20 trials); the four other arms of the maze were presented alternatively (two baited and two non-baited). […]
# At each trial, the latency to visit the arm is measured. […]
# Flexibility of learning was evaluated in the following conditions. […]
# The percentage of correct responses for each pair was measured. […]
# 85 receptors = experiment: CEREP High-throughput binding profile (85 receptors), whole panel
# Text: The CEREP High-throughput profile consists of a broad collection of 80 transmembrane and soluble receptors, ion channels and G-Protein coupled receptors.
# human CB1 receptor = human CB1 receptor (Homo sapiens, UniProt P21554); experiment: THC-induced decrease of cAMP in CHO-hCB1 cells; format: cell-based; conditions: 1 nM, 10 nM, 100 nM and 1 μM
# Experimental: CHO-CB1-C2 cells were treated by concomitantly adding THC and the test compound for 45 minutes. Forskolin (2.5 μM) was also simultaneously added in all the conditions tested to sustain cAMP basal level.
# At the end of the treatment, cells were lysed to proceed with the cAMP quantification. All measures were performed in triplicates in one experiment. The quantitative determination of cAMP was performed through a competitive fluorescence immunoassay. Data were expressed as % of Delta Fluorescence (Delta F) that was calculated as follows: Delta F %=(Sample Fluorescence−Negative control Fluorescence)/Negative control Fluorescence.
# [2] = molecular target: T1, wild-type human CB1 receptor (Homo sapiens, UniProt P21554); experiment: THC-induced inhibition of cellular respiration in HEK-293-hCB1-WT; format: cell-based; conditions: THC 1 μM
# T1 construct: expressed in transfected cells; host or cells: HEK-293 (transient)
# Experimental: In a first study (FIG. 5A), HEK-293 cells were transiently transfected with the wild-type hCB1-expressing plasmid (HEK-293-hCB1-WT). […] After 15 min of incubation, THC (0; 1 μM, dissolved in EtOH, 0.0034%) was added in the culture dishes for 30 minutes.
# (§1) Cellular respiration was measured in a calibrated oxygraph equipped with a Clark electrode. Oxygen consumption (OC) rate was used to measure cellular respiration.
# [3] = molecular target: T2, mutant human CB1 receptor (hCB1p.E1.49G) (Homo sapiens, UniProt P21554, E133G); experiment: THC-induced inhibition of cellular respiration in HEK-293-hCB1-Mut; format: cell-based; conditions: 100 nM, THC 1 μM
# T2 construct: expressed in transfected cells; host or cells: HEK-293 (transient)
# Experimental: In a second study (FIG. 5B), HEK-293 cells were transiently transfected either with the wild-type hCB1-expressing plasmid (HEK-293-hCB1-WT) or with the mutant hCB1p.E1.49G-expressing plasmid (HEK-293-hCB1-Mut). In this mutant the glutamate amino acid at position 1.49 was substituted by a glycine. […] After 15 min of incubation, THC (0; 1 μM, dissolved in EtOH, 0.0034%) was added in the culture dishes for 30 minutes.
# as §1
# [4] = Depressive-like behaviors in the sucrose preference test; format: in vivo, mouse
# Experimental: Sucrose preference was tested in the home cages of the mice. A sucrose solution containing 2% of sucrose (D(+) saccharose) in tap water was poured in plastic graduated bottles (volume in each bottle, 45 ml). Identical bottles were filled with tap water. All the mice were first habituated to the bottles and to the sucrose solution. One bottle containing water and one bottle containing sucrose were placed in the hopper of each home cage. […] The mice had access to the solutions from the beginning of the dark phase, at the daily peak of food and water consumption (from 7 pm to 8.30 am). The sucrose preference test was performed seven days later. Water and sucrose solutions were presented as described for habituation except that mice had access to the solutions from 12 pm to 10 pm. At each time point, the bottles were weighed, 1 g corresponding to 1 ml. The intake volume was calculated by subtracting the initial bottle weight to the final bottle weight.
# 15 or 30 mg/kg or of vehicle (corn oil; 5 ml/kg) was studied in the sucrose preference test in 2-month-old male C57B1/6J mice (n=7-8 per group). Rimonabant was dissolved in a vehicle containing dimethylsulfoxide (DMSO, 2%), Tween80 (2%) in injectable NaCl 0.9%. Within the same study, the effect of repeated intraperitoneal injections of rimonabant at 10 mg/kg or of vehicle alone (10 ml/kg) was studied in the sucrose preference test in 2-month-old male C57B1/6J mice (n=8 per group).
# T1 sequence (P21554 whole entry): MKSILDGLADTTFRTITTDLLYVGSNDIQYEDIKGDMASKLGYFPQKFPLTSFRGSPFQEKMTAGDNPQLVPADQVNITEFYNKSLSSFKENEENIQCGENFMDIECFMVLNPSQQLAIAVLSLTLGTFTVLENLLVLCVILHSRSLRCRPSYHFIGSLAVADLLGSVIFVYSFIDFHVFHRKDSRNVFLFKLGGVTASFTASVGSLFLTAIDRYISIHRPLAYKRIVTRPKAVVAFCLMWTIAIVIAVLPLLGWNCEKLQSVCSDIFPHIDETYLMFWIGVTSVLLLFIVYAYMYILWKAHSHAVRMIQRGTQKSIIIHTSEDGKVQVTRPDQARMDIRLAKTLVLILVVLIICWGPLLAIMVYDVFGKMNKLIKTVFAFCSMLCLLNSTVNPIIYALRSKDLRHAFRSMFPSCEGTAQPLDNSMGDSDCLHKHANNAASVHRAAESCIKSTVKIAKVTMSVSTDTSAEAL
# Sequence of human CB1 receptor (P21554 whole entry): as above
# T2 sequence (P21554 whole entry E133G): as the sequence (P21554 whole entry) above, with E133G counted along it
smiles,measurement,setting,value
"CC(=O)[C@@]1(C)CC[C@H]2[C@@H]3CC=C4C[C@@H](OCc5ccccc5)CC[C@]4(C)[C@H]3CC[C@@]21C [3Bn17MeP, 3β-benzyloxy, 17α-methyl-pregn-5-en-20-one]",concentration at 5 h,in vivo,4.65 µg/mL
same,concentration at 24 h,in vivo,0.974 µg/mL
same,Correct responses in the flexibility test (choice accuracy),[1],more than 70%
same,Modification of the binding of the 85 receptors,85 receptors; 10 μM,does not modify the binding of any of the 85 receptors
same,IC50,"85 receptors; CEREP High-throughput binding profile (85 receptors), read-out: ID50 (the source's name)",> 10 µM
same,Effect on inhibition of cAMP induced by THC,human CB1 receptor,does not modify
same,ID100,[2]; HEK-293-hCB1,50 nM
same,% Inhibition,"[2]; HEK-293-hCB1, maximal inhibition of THC effect",100%
same,Concentration with significant block of THC-induced inhibition of cellular respiration,"[2]; tested 1, 2.5, 5, 50 and 100 nM, Tukey's test",≥ 2.5 nM
same,Effect on THC-induced decrease in cellular respiration,[3],insensitive
same,Sucrose intake,"[4]; 0.05, 5, 15, 30 mg/kg per os once a day, 28 days",had no effect on sucrose intake
same,Effect: increase in depression-related behaviors (repeated administration),"[4]; male mice, highest dose tested 30 mg/kg",No
